According to patent US9828413B2, “Vancomycin derivative, and preparation method and application thereof” (ACESYS PHARMA INC., priority 2013, dated 2017):
In brackets after ≈: the same amount, converted by molar mass.

Tests used:
[1] = system: Staphylococcus aureus Mu50; test: In vitro activity assay, minimum inhibitory concentration (MIC), cup-plate method; format: cell-based; details: strain Mu50, trypticase soy broth, read-out: MIC values, Staphylococcus aureus Mu50
Procedure: (§1) In vitro activity assay was performed according to Microbiological Identification of Antibiotics, Appendix XIA, Volume II, Chinese Pharmacopoeia 2010. Vancomycin-sensitive Staphylococcus aureus strains (Newman and Mu 50) were selected as the test strains, and trypticase soy broth was selected as the culture medium.

[2] = system: Staphylococcus aureus Newman; test: as above; format: cell-based; details: strain Newman, trypticase soy broth, read-out: MIC values, Staphylococcus aureus Newman
Procedure: as §1

physchem = details: 25 °C, water, thermodynamic from solid

Row | Structure (SMILES) | MIC [1] [µg/mL] | MIC [2] [µg/mL] | solubility at 30 min (physchem) [mg/mL]
1 | CCCCCCOC(CNC1(C)CC(OC2C(Oc3c4cc5cc3Oc3ccc(cc3Cl)[C@@H](O)[C@@H]3NC(=O)C(NC(=O)[C@@H]5NC(=O)[C@H](CC(N)=O)NC(=O)C(NC(=O)[C@@H](CC(C)C)NC)[C@H](O)c5ccc(c(Cl)c5)O4)c4ccc(O)c(c4)-c4c(O)cc(O)cc4[C@H](C(=O)O)NC3=O)OC(CO)C(O)C2O)OC(C)C1O)C(=O)O (stereo partly drawn) [Compound V32] | 8 (≈ 4.93 µM) | 2 (≈ 1.23 µM) | 50 to 60 (≈ 30800 to 37000 µM)
2 | CCOC(CNC1(C)CC(OC2C(Oc3c4cc5cc3Oc3ccc(cc3Cl)[C@@H](O)[C@@H]3NC(=O)C(NC(=O)C5NC(=O)C(CC(N)=O)NC(=O)[C@@H](NC(=O)[C@@H](CC(C)C)NC)C(O)c5ccc(c(Cl)c5)O4)c4ccc(O)c(c4)-c4c(O)cc(O)cc4C(C(=O)O)NC3=O)OC(CO)C(O)C2O)OC(C)C1O)C(=O)OC (stereo partly drawn) [Compound V33] | 64 (≈ 40.5 µM) | 16 (≈ 10.1 µM) | 5 (≈ 3170 µM)
3 | CC(C)C[C@@H](N)C(=O)N[C@@H]1C(=O)NC(CC(N)=O)C(=O)NC2C(=O)NC3C(=O)N[C@H](C(=O)NC(C(=O)O)c4cc(O)cc(O)c4-c4cc3ccc4O)[C@H](O)c3ccc(c(Cl)c3)Oc3cc2cc(c3OC2OC(CO)C(O)C(O)C2OC2CC(C)(NCC(OCc3ccccc3)C(=O)O)C(O)C(C)O2)Oc2ccc(cc2Cl)C1O (stereo partly drawn) [Compound V51] | 32 (≈ 19.8 µM) | 8 (≈ 4.96 µM) | 20 (≈ 12400 µM)
4 | COC(=O)C(CNC1(C)CC(OC2C(Oc3c4cc5cc3Oc3ccc(cc3Cl)[C@@H](O)[C@@H]3NC(=O)C(NC(=O)C5NC(=O)C(CC(N)=O)NC(=O)[C@@H](NC(=O)[C@H](N)CC(C)C)C(O)c5ccc(c(Cl)c5)O4)c4ccc(O)c(c4)-c4c(O)cc(O)cc4C(C(=O)O)NC3=O)OC(CO)C(O)C2O)OC(C)C1O)OCc1ccc(Cl)cc1 (stereo partly drawn) [Compound V52] | 2 (≈ 1.2 µM) | < 0.125 | 20 (≈ 12000 µM)
5 | CC(C)C[C@@H](N)C(=O)NC1C(=O)N[C@@H](CC(N)=O)C(=O)N[C@H]2C(=O)NC3C(=O)N[C@H](C(=O)N[C@@H](C(=O)O)c4cc(O)cc(O)c4-c4cc3ccc4O)[C@H](O)c3ccc(c(Cl)c3)Oc3cc2cc(c3OC2OC(CO)C(O)C(O)C2OC2CC(C)(NCC(OCc3ccc(-c4ccccc4)cc3)C(=O)O)C(O)C(C)O2)Oc2ccc(cc2Cl)[C@H]1O (stereo partly drawn) [Compound V53] | 2 (≈ 1.18 µM) | < 0.125 | 20 (≈ 11800 µM)
6 | CC(C)C[C@@H](N)C(=O)NC1C(=O)N[C@@H](CC(N)=O)C(=O)N[C@H]2C(=O)NC3C(=O)N[C@H](C(=O)N[C@@H](C(=O)O)c4cc(O)cc(O)c4-c4cc3ccc4O)[C@H](O)c3ccc(c(Cl)c3)Oc3cc2cc(c3OC2OC(CO)C(O)C(O)C2OC2CC(C)(NCC(OCc3ccc(-c4ccc(Cl)cc4)cc3)C(=O)O)C(O)C(C)O2)Oc2ccc(cc2Cl)[C@H]1O (stereo partly drawn) [Compound V54] | 2 (≈ 1.16 µM) | < 0.125 | 15 to 20 (≈ 8700 to 11600 µM)
7 | COC(=O)C(CNC1(C)CC(OC2C(Oc3c4cc5cc3Oc3ccc(cc3Cl)[C@@H](O)[C@@H]3NC(=O)C(NC(=O)[C@@H]5NC(=O)[C@H](CC(N)=O)NC(=O)C(NC(=O)[C@H](N)CC(C)C)[C@H](O)c5ccc(c(Cl)c5)O4)c4ccc(O)c(c4)-c4c(O)cc(O)cc4[C@H](C(=O)O)NC3=O)OC(CO)C(O)C2O)OC(C)C1O)OCc1ccc(-c2ccc(Cl)cc2)cc1 (stereo partly drawn) [Compound V55] | 2 (≈ 1.15 µM) | < 0.125 | 3 (≈ 1730 µM)
8 | CCCOC(CNC1(C)CC(OC2C(Oc3c4cc5cc3Oc3ccc(cc3Cl)[C@@H](O)[C@@H]3NC(=O)C(NC(=O)C5NC(=O)C(CC(N)=O)NC(=O)[C@@H](NC(=O)[C@H](N)CC(C)C)C(O)c5ccc(c(Cl)c5)O4)c4ccc(O)c(c4)-c4c(O)cc(O)cc4C(C(=O)O)NC3=O)OC(CO)C(O)C2O)OC(C)C1O)C(=O)O (stereo partly drawn) [Compound V57] | 16 (≈ 10.2 µM) | 4 (≈ 2.56 µM) | > 60
9 | CCCCOC(CNC1(C)CC(OC2C(Oc3c4cc5cc3Oc3ccc(cc3Cl)[C@@H](O)[C@@H]3NC(=O)C(NC(=O)C5NC(=O)C(CC(N)=O)NC(=O)[C@@H](NC(=O)[C@H](N)CC(C)C)C(O)c5ccc(c(Cl)c5)O4)c4ccc(O)c(c4)-c4c(O)cc(O)cc4C(C(=O)O)NC3=O)OC(CO)C(O)C2O)OC(C)C1O)C(=O)O (stereo partly drawn) [Compound V58] | > 128 | 64 (≈ 40.5 µM) | 50 to 60 (≈ 31700 to 38000 µM)
10 | CCCCCCOC(CNC1(C)CC(OC2C(Oc3c4cc5cc3Oc3ccc(cc3Cl)[C@@H](O)[C@@H]3NC(=O)C(NC(=O)C5NC(=O)C(CC(N)=O)NC(=O)[C@@H](NC(=O)[C@H](N)CC(C)C)C(O)c5ccc(c(Cl)c5)O4)c4ccc(O)c(c4)-c4c(O)cc(O)cc4C(C(=O)O)NC3=O)OC(CO)C(O)C2O)OC(C)C1O)C(=O)OC (stereo partly drawn) [Compound V59] | 8 (≈ 4.93 µM) | 2 (≈ 1.23 µM) | < 10
11 | CCCCCCOC(CNC1(C)CC(OC2C(Oc3c4cc5cc3Oc3ccc(cc3Cl)[C@@H](O)[C@@H]3NC(=O)C(NC(=O)[C@@H]5NC(=O)[C@H](CC(N)=O)NC(=O)C(NC(=O)[C@H](N)CC(C)C)[C@H](O)c5ccc(c(Cl)c5)O4)c4ccc(O)c(c4)-c4c(O)cc(O)cc4[C@H](C(=O)O)NC3=O)OC(CO)C(O)C2O)OC(C)C1O)C(=O)O (stereo partly drawn) [Compound V60] | 8 (≈ 4.98 µM) | 2 (≈ 1.24 µM) | > 20
12 | CN[C@H](CC(C)C)C(=O)NC1C(=O)N[C@@H](CC(N)=O)C(=O)N[C@H]2C(=O)NC3C(=O)N[C@H](C(=O)N[C@@H](C(=O)O)c4cc(O)cc(O)c4-c4cc3ccc4O)[C@H](OC3CC(C)(N)C(O)C(C)O3)c3ccc(c(Cl)c3)Oc3cc2cc(c3OC2OC(CO)C(O)C(O)C2OC2CC(C)(NCC(OCc3ccccc3)C(=O)O)C(O)C(C)O2)Oc2ccc(cc2Cl)[C@H]1O (stereo partly drawn) [Compound V61] | 8 (≈ 4.52 µM) | 4 (≈ 2.26 µM) | 20 (≈ 11300 µM)
13 | CN[C@H](CC(C)C)C(=O)N[C@@H]1C(=O)NC(CC(N)=O)C(=O)NC2C(=O)NC3C(=O)N[C@H](C(=O)NC(C(=O)O)c4cc(O)cc(O)c4-c4cc3ccc4O)[C@H](OC3CC(C)(N)C(O)C(C)O3)c3ccc(c(Cl)c3)Oc3cc2cc(c3OC2OC(CO)C(O)C(O)C2OC2CC(C)(NCC(OCc3ccc(Cl)cc3)C(=O)O)C(O)C(C)O2)Oc2ccc(cc2Cl)C1O (stereo partly drawn) [Compound V62] | 8 (≈ 4.43 µM) | 4 (≈ 2.22 µM) | 5 to 20 (≈ 2770 to 11100 µM)
14 | CN[C@H](CC(C)C)C(=O)N[C@@H]1C(=O)NC(CC(N)=O)C(=O)NC2C(=O)NC3C(=O)N[C@H](C(=O)NC(C(=O)O)c4cc(O)cc(O)c4-c4cc3ccc4O)[C@H](OC3CC(C)(N)C(O)C(C)O3)c3ccc(c(Cl)c3)Oc3cc2cc(c3OC2OC(CO)C(O)C(O)C2OC2CC(C)(NCC(OCc3ccc(-c4ccc(Cl)cc4)cc3)C(=O)O)C(O)C(C)O2)Oc2ccc(cc2Cl)C1O (stereo partly drawn) [Compound V63] | 2 (≈ 1.06 µM) | < 0.125 | 5 to 20 (≈ 2660 to 10600 µM)
15 | CN[C@H](CC(C)C)C(=O)N[C@@H]1C(=O)NC(CC(N)=O)C(=O)NC2C(=O)NC3C(=O)N[C@H](C(=O)NC(C(=O)O)c4cc(O)cc(O)c4-c4cc3ccc4O)[C@H](OC3CC(C)(N)C(O)C(C)O3)c3ccc(c(Cl)c3)Oc3cc2cc(c3OC2OC(CO)C(O)C(O)C2OC2CC(C)(NCC(OCc3ccc(-c4ccccc4Cl)cc3)C(=O)O)C(O)C(C)O2)Oc2ccc(cc2Cl)C1O (stereo partly drawn) [Compound V64] | 2 (≈ 1.06 µM) | < 0.125 | 5 to 20 (≈ 2660 to 10600 µM)
16 | CN[C@H](CC(C)C)C(=O)NC1C(=O)N[C@@H](CC(N)=O)C(=O)N[C@H]2C(=O)NC3C(=O)N[C@H](C(=O)N[C@@H](C(=O)O)c4cc(O)cc(O)c4-c4cc3ccc4O)[C@H](OC3CC(C)(N)C(O)C(C)O3)c3ccc(c(Cl)c3)Oc3cc2cc(c3OC2OC(CO)C(O)C(O)C2OC2CC(C)(NCC(OCc3cccc(-c4ccc(Cl)cc4)c3)C(=O)O)C(O)C(C)O2)Oc2ccc(cc2Cl)[C@H]1O (stereo partly drawn) [Compound V65] | 2 (≈ 1.06 µM) | < 0.125 | 5 to 20 (≈ 2660 to 10600 µM)
